Experimental data as given in the NIST ThermoML archive (doi:10.1021/je800046k).

Assay: xn = mol fraction of the nth substance listed
Conditions: for surface tension liquid-gas: Pendant drop shape; for mass density: 101 kPa, Liquid

Cc1cc(C)cc(C)c1 [1,3,5-trimethylbenzene] + CC(=O)OC(C)C
Conditions	mass density [kg/m3]	surface tension liquid-gas [mN/m]
298.15 K, x2 = 0	861.12	28.05
298.15 K, x2 = 0.0495	861.03	27.68
298.15 K, x2 = 0.1008	861.01	27.28
298.15 K, x2 = 0.1504	860.99	26.92
298.15 K, x2 = 0.199	861.02	26.52
298.15 K, x2 = 0.2514	861.07	26.15
298.15 K, x2 = 0.2996	861.13	25.79
298.15 K, x2 = 0.351	861.25	25.42
298.15 K, x2 = 0.4009	861.36	25.07
298.15 K, x2 = 0.4502	861.53	24.71
298.15 K, x2 = 0.5002	861.71	24.37
298.15 K, x2 = 0.5497	861.96	24.05
298.15 K, x2 = 0.6001	862.22	23.72
298.15 K, x2 = 0.6502	862.53	23.42
298.15 K, x2 = 0.7003	862.88	23.14
298.15 K, x2 = 0.7496	863.29	22.88
298.15 K, x2 = 0.7987	863.73	22.65
298.15 K, x2 = 0.8498	864.28	22.46
298.15 K, x2 = 0.8998	864.85	22.28
298.15 K, x2 = 0.9505	865.52	22.06
308.15 K, x2 = 0	852.94	27.21
308.15 K, x2 = 0.0501	852.69	26.78
308.15 K, x2 = 0.0993	852.53	26.37
308.15 K, x2 = 0.1514	852.38	25.94
308.15 K, x2 = 0.2	852.27	25.55
308.15 K, x2 = 0.2514	852.16	25.16
308.15 K, x2 = 0.3018	852.09	24.8
308.15 K, x2 = 0.353	852.03	24.42
308.15 K, x2 = 0.3991	852.01	24.06
308.15 K, x2 = 0.4503	852	23.69
308.15 K, x2 = 0.4993	852.03	23.35
308.15 K, x2 = 0.5492	852.08	23.01
308.15 K, x2 = 0.6	852.18	22.67
308.15 K, x2 = 0.65	852.3	22.36
308.15 K, x2 = 0.7003	852.47	22.05
308.15 K, x2 = 0.7499	852.68	21.79
308.15 K, x2 = 0.7993	852.92	21.52
308.15 K, x2 = 0.8488	853.23	21.31
308.15 K, x2 = 0.9004	853.61	21.14
308.15 K, x2 = 0.9506	854.03	20.92
313.15 K, x2 = 0	848.82	26.78
313.15 K, x2 = 0.0498	848.53	26.33
313.15 K, x2 = 0.1001	848.29	25.9
313.15 K, x2 = 0.1495	848.08	25.45
313.15 K, x2 = 0.2006	847.88	25.06
313.15 K, x2 = 0.25	847.71	24.67
313.15 K, x2 = 0.3005	847.55	24.28
313.15 K, x2 = 0.3497	847.43	23.9
313.15 K, x2 = 0.3998	847.3	23.54
313.15 K, x2 = 0.4508	847.22	23.18
313.15 K, x2 = 0.4998	847.16	22.82
313.15 K, x2 = 0.5496	847.13	22.49
313.15 K, x2 = 0.6007	847.12	22.13
313.15 K, x2 = 0.6504	847.16	21.83
313.15 K, x2 = 0.7	847.23	21.5
313.15 K, x2 = 0.7495	847.33	21.22
313.15 K, x2 = 0.7993	847.48	20.96
313.15 K, x2 = 0.8507	847.68	20.73
313.15 K, x2 = 0.9008	847.93	20.52
313.15 K, x2 = 0.9504	848.25	20.36
